Reference: patent publication US11530244B2, “Cyclic polypeptides for PCSK9 inhibition” (priority 2018, dated 2022)
pIC50: −log10 of the molar value. Read-outs that look alike come from different tables or passages of the source. Starred links: 1 amine or outer side, 2 acyl side, 3 side chain; linkers in the order of their positions; H or OH if unused. Positions of bridges follow the written chain, without caps; N, C: chain ends. Non-standard residues stand in square brackets, D forms with d. Residues, ends and D or L forms follow the SMILES beside them. X14 = CCOP(=O)(OCC)C(F)(F)c1ccc(C[C@H](N[*:1])C(=O)[*:2])cc1; Pyridine(2,6-diCH2) = c1cc(C[*:1])nc(C[*:2])c1; Trp(5-F) = N[C@@H](Cc1c[nH]c2ccc(F)cc12)C(=O)O; Pyridine(3,5-bisCH2) = c1ncc(C[*:2])cc1C[*:1]; Phe(4-CH2NH2) = NCc1ccc(C[C@H](N)C(=O)O)cc1; Pro(trans-4-F) = O=C(O)[C@@H]1C[C@@H](F)CN1; Pro(cis-4-F) = O=C(O)[C@@H]1C[C@H](F)CN1; X4 = O=C(CCSCc1cccc(CSCCN[*:1])c1)[*:2]; TBMB = c1c(C[*:1])cc(C[*:3])cc1C[*:2]; mXylylene = c1cc(C[*:1])cc(C[*:2])c1; AEF = NCCOc1ccc(C[C@H](N)C(=O)O)cc1; X15 = Brc1cc(C[*:1])cc(C[*:2])c1; X35 = COc1cc(C[*:1])cc(C[*:2])c1; X22 = Oc1cc(C[*:1])cc(C[*:2])c1; X8 = Clc1cc(C[*:1])cc(C[*:2])c1; NMeD = CN[C@@H](CC(=O)O)C(=O)O; aThr = C[C@H](O)[C@H](N)C(=O)O; αMeP = C[C@@]1(C(=O)O)CCCN1; Mpa = O=C(O)CCS

Tests used:
[1] = biological target: PCSK9 (Homo sapiens (Human), UniProt Q8NBP7); experiment: PCSK9 Alexa FRET Standard assay (displacement of AlexaFluor647 tagged cyclic peptide Reagent A); type: binding; settings: 0.5 nM PCSK9, 20 nM AF cyclic peptide Reagent A
Summary of the method: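 TR-FRET displacement: 0.5 nM biotinylated PCSK9 with 1.25 nM Strep-Eu and 20 nM AlexaFluor-tagged cyclic peptide (final) in 50 mM HEPES pH 7.4, 0.15 M NaCl, 5 mM CaCl2, 0.01% BSA, 0.01% P20, ≥2 h at room temperature. IC50 from sigmoidal fit, converted to Ki via peptide KD; falling Eu counts flagged false positives.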

[2] = biological target: human PCSK9 / human LDLR EGFa domain interaction (Homo sapiens (Human), UniProt Q8NBP7); experiment: TR-FRET assay of inhibition of the PCSK9-LDLR protein-protein interaction; type: binding
Summary of the method: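 Biotinylated PCSK9 (20 nM) and His-tagged LDLR EGFa domain (20 nM) were incubated 2 h at room temperature with 5 nM Ulight-streptavidin and 5 nM Eu-anti-His in HEPES/NaCl/CaCl2 buffer with 0.01% BSA and 0.01% P20. TR-FRET was read; half-maximal inhibitory concentrations came from 4-parameter dose-response fits.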

[3] = PCSK9 Alexa FRET Standard assay, read-out: IC50
[4] = TR-FRET, 20 nM human PCSK9, 20 nM human LDLR EGFa domain, 2 hours room temperature, read-out: IC50

Chain of human PCSK9 / human LDLR EGFa domain interaction (Q8NBP7 153-692): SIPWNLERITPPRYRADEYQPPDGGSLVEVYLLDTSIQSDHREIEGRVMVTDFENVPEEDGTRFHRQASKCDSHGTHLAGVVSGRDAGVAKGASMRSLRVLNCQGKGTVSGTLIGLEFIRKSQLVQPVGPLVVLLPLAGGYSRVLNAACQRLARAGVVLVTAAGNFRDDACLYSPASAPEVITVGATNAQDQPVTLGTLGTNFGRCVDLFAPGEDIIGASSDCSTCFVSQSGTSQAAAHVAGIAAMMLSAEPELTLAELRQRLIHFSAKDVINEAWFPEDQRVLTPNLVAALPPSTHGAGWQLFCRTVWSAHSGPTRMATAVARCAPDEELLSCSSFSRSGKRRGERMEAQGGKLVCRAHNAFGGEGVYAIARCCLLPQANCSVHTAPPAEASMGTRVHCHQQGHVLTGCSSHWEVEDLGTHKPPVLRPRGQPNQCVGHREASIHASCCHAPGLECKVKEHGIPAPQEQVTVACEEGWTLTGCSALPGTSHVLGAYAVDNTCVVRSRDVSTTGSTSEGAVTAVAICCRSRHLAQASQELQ
Chain of human PCSK9 / human LDLR EGFa domain interaction (Q8NBP7 31-152 partner): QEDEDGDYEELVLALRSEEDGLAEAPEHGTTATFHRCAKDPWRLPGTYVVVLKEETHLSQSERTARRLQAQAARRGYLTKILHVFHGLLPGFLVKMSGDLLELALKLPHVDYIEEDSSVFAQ
Chain of PCSK9 (Q8NBP7 153-692): as the sequence (Q8NBP7 153-692) above

SMILES | pIC50 [1, 3] | pIC50 [2, 4] | pIC50 ([1]; IC50, PCSK9 Alexa FRET Standard assay) | pIC50 [2]
COc1ccc(C[C@@H]2NC(=O)[C@H]([C@@H](C)O)NC(=O)[C@@H]3C[C@H](F)CN3C(=O)[C@H](Cc3c[nH]c4ccc(F)cc34)NC(=O)[C@H](Cc3c[nH]c4ccc(F)cc34)NC(=O)[C@@H](C)NC(=O)[C@H](CCCCN)NC(=O)[C@@H](NC(C)=O)CC(=O)NCCOc3ccc(cc3)C[C@@H](C(N)=O)NC(=O)[C@]3(C)CCCN3C2=O)cc1 [Compound 067] (Ac-DK[dA][Trp(5-F)][Trp(5-F)][Pro(cis-4-F)]TY(Me)[αMeP][AEF]-NH2; lactam 1-10) | 6.00 to 7.00 | 7.00 to 10.00 |  | 
COc1ccc(C[C@@H]2NC(=O)[C@H]([C@H](C)O)NC(=O)[C@@H]3C[C@H](F)CN3C(=O)[C@H](Cc3c[nH]c4ccc(F)cc34)NC(=O)[C@H](Cc3c[nH]c4ccc(F)cc34)NC(=O)[C@@H](C)NC(=O)[C@H](CCCCN)NC(=O)[C@H](NC(C)=O)CCc3cn(nn3)-c3ccc(cc3)C[C@@H](C(N)=O)NC(=O)[C@]3(C)CCCN3C2=O)cc1 [Compound 068] | 7.00 to 9.96 | 7.00 to 10.00 |  | 
CCOP(=O)(OCC)C(F)(F)c1ccc(C[C@@H]2NC(=O)[C@H]([C@@H](C)O)NC(=O)[C@@H]3CCCN3C(=O)[C@H](Cc3c[nH]c4ccc(F)cc34)NC(=O)[C@H](Cc3c[nH]c4ccc(F)cc34)NC(=O)[C@@H](C)NC(=O)[C@H](CCCCN)NC(=O)CCSCc3cccc(c3)CSCCNC(=O)[C@]3(C)CCCN3C2=O)cc1 [Compound 131] (cyclo(K[dA][Trp(5-F)][Trp(5-F)]PT[X14][αMeP][X4])) |  |  | 4.92 to 6.00 | 6.00 to 7.00
COc1ccc(C[C@@H]2NC(=O)[C@H]([C@@H](C)O)NC(=O)[C@@H]3C[C@H](F)CN3C(=O)[C@H](Cc3c[nH]c4ccc(F)cc34)NC(=O)[C@H](Cc3c[nH]c4ccc(F)cc34)NC(=O)[C@@H](C)NC(=O)[C@H](CCCCN)NC(=O)CCC/C=C\Cc3ccc(cc3)C[C@@H](C(N)=O)NC(=O)[C@]3(C)CCCN3C2=O)cc1 [Compound 132] | 4.30 to 4.68 | 4.30 to 4.68 |  | 
CCCCCCCCCCCCCCCC(=O)N[C@@H](CCC(=O)NCCOCCOCC(=O)NCCOCCOCC(=O)NCCCC[C@H](NC(=O)CCOCCOCCOCCOCCOCCOCCOCCOCCNC(=O)CCOCCOCCOCCOCCOCCOCCOCCOCCOCCOCCOCCOCCNC(=O)[C@@H]1CSCc2cccc(c2)CSCCC(=O)N[C@@H](C)C(=O)N[C@H](C)C(=O)N[C@@H](Cc2c[nH]c3ccc(F)cc23)C(=O)N[C@@H](Cc2c[nH]c3ccc(F)cc23)C(=O)[C@@H]2C[C@H](F)CN2C(=O)N[C@@H]([C@@H](C)O)C(=O)N[C@@H](Cc2ccc(O)cc2)C(=O)N2CCC[C@@]2(C)C(=O)N1)C(N)=O)C(=O)O [Compound 133] | 4.92 to 6.00 | 4.92 to 6.00 |  | 
NCCCC[C@@H]1NC(=O)CCSCc2cccc(c2)CSC[C@@H](C(N)=O)NC(=O)[C@@H]2CCCN2C(=O)[C@H](Cc2ccc(O)cc2)NC(=O)[C@H](Cc2c[nH]cn2)NC(=O)[C@H](CC(=O)O)NC(=O)[C@H](Cc2c[nH]c3ccc(F)cc23)NC(=O)[C@H](Cc2c[nH]c3ccc(F)cc23)NC(=O)CNC1=O [Compound 149] ([Mpa]KG[Trp(5-F)][Trp(5-F)]DHYPC-NH2; linker 1-10 via mXylylene) | 4.92 to 6.00 | 4.92 to 6.00 |  | 
CN1C(=O)[C@H](Cc2c[nH]c3ccc(F)cc23)NC(=O)[C@H](Cc2c[nH]c3ccc(F)cc23)NC(=O)CNC(=O)[C@H](CCCCN)NC(=O)CCSCc2cccc(c2)CSC[C@@H](C(N)=O)NC(=O)[C@@H]2CCCN2C(=O)[C@H](Cc2ccc(O)cc2)NC(=O)[C@H](Cc2cnc[nH]2)NC(=O)[C@@H]1CC(=O)O [Compound 171] ([Mpa]KG[Trp(5-F)][Trp(5-F)][NMeD]HYPC-NH2; linker 1-10 via mXylylene) | 6.00 to 7.00 | 7.00 to 10.00 |  | 

The next lines start with results.

pIC50 [1, 3] | pIC50 [2, 4] | SMILES | pIC50 ([1]; IC50, PCSK9 Alexa FRET Standard assay) | pIC50 [2]
7.00 to 9.96 | 7.00 to 10.00 | COc1ccc(C[C@@H]2NC(=O)[C@H]([C@@H](C)O)NC(=O)[C@@H]3CCCN3C(=O)[C@H](Cc3c[nH]c4ccc(F)cc34)NC(=O)[C@H](Cc3c[nH]c4ccc(F)cc34)NC(=O)[C@@H](C)NC(=O)[C@H](CCCCN)NC(=O)CCSCc3cncc(c3)CSC[C@@H](C(N)=O)NC(=O)[C@]3(C)CCCN3C2=O)cc1 [Compound 058] ([Mpa]K[dA][Trp(5-F)][Trp(5-F)]PTY(Me)[αMeP]C-NH2; linker 1-10 via Pyridine(3,5-bisCH2)) |  | 
6.00 to 7.00 | 6.00 to 7.00 | CO[C@H](C)[C@@H]1NC(=O)[C@@H]2C[C@@H](F)CN2C(=O)[C@H](Cc2c[nH]c3ccc(F)cc23)NC(=O)[C@H](Cc2c[nH]c3ccc(F)cc23)NC(=O)CNC(=O)[C@H](CCCCN)NC(=O)CCSCc2cccc(c2)CSC[C@@H](C(N)=O)NC(=O)[C@]2(C)CCCN2C(=O)[C@H](Cc2ccc(O)cc2)NC1=O [Compound 059] ([Mpa]KG[Trp(5-F)][Trp(5-F)][Pro(trans-4-F)]T(Me)Y[αMeP]C-NH2; linker 1-10 via mXylylene) |  | 
4.30 to 4.68 | 4.30 to 4.68 | COc1ccc(C[C@@H]2NC(=O)[C@H]([C@@H](C)O)NC(=O)[C@@H]3CCCN3C(=O)[C@H](Cc3c[nH]c4ccc(F)cc34)NC(=O)[C@H](Cc3c[nH]c4ccc(F)cc34)NC(=O)[C@@H](C)NC(=O)[C@H](CCCCN)NC(=O)CCSCc3cc(O)cc(c3)CSC[C@@H](C(N)=O)NC(=O)[C@]3(C)CCCN3C2=O)cc1 [Compound 060] ([Mpa]K[dA][Trp(5-F)][Trp(5-F)]PTY(Me)[αMeP]C-NH2; linker 1-10 via X22) |  | 
4.30 to 4.68 | 4.30 to 4.68 | COc1ccc(C[C@@H]2NC(=O)[C@H]([C@@H](C)O)NC(=O)[C@@H]3CCCN3C(=O)[C@H](Cc3c[nH]c4ccc(F)cc34)NC(=O)[C@H](Cc3c[nH]c4ccc(F)cc34)NC(=O)[C@@H](C)NC(=O)[C@H](CCCCN)NC(=O)CCSCc3cc(Br)cc(c3)CSC[C@@H](C(N)=O)NC(=O)[C@]3(C)CCCN3C2=O)cc1 [Compound 061] ([Mpa]K[dA][Trp(5-F)][Trp(5-F)]PTY(Me)[αMeP]C-NH2; linker 1-10 via X15) |  | 
4.92 to 6.00 | 4.92 to 6.00 | COc1ccc(C[C@@H]2NC(=O)[C@H]([C@@H](C)O)NC(=O)[C@@H]3CCCN3C(=O)[C@H](Cc3c[nH]c4ccc(F)cc34)NC(=O)[C@H](Cc3c[nH]c4ccc(F)cc34)NC(=O)[C@@H](C)NC(=O)[C@H](CCCCN)NC(=O)CCSCc3cc(C)cc(c3)CSC[C@@H](C(N)=O)NC(=O)[C@]3(C)CCCN3C2=O)cc1 [Compound 062] ([Mpa]K[dA][Trp(5-F)][Trp(5-F)]PTY(Me)[αMeP]C-NH2; linker 1-10 via TBMB) |  | 
4.30 to 4.68 | 4.92 to 6.00 | COc1ccc(C[C@@H]2NC(=O)[C@H]([C@@H](C)O)NC(=O)[C@@H]3CCCN3C(=O)[C@H](Cc3c[nH]c4ccc(F)cc34)NC(=O)[C@H](Cc3c[nH]c4ccc(F)cc34)NC(=O)[C@@H](C)NC(=O)[C@H](CCCCN)NC(=O)CCSCc3cc(cc(OC)c3)CSC[C@@H](C(N)=O)NC(=O)[C@]3(C)CCCN3C2=O)cc1 [Compound 063] ([Mpa]K[dA][Trp(5-F)][Trp(5-F)]PTY(Me)[αMeP]C-NH2; linker 1-10 via X35) |  | 
4.92 to 6.00 | 4.92 to 6.00 | COc1ccc(C[C@@H]2NC(=O)[C@H]([C@@H](C)O)NC(=O)[C@@H]3CCCN3C(=O)[C@H](Cc3c[nH]c4ccc(F)cc34)NC(=O)[C@H](Cc3c[nH]c4ccc(F)cc34)NC(=O)[C@@H](C)NC(=O)[C@H](CCCCN)NC(=O)CCSCc3cc(Cl)cc(c3)CSC[C@@H](C(N)=O)NC(=O)[C@]3(C)CCCN3C2=O)cc1 [Compound 064] ([Mpa]K[dA][Trp(5-F)][Trp(5-F)]PTY(Me)[αMeP]C-NH2; linker 1-10 via X8) |  | 
6.00 to 7.00 | 7.00 to 10.00 | COc1ccc(C[C@@H]2NC(=O)[C@H]([C@@H](C)O)NC(=O)[C@@H]3CCCN3C(=O)[C@H](Cc3c[nH]c4ccc(F)cc34)NC(=O)[C@H](Cc3c[nH]c4ccc(F)cc34)NC(=O)[C@@H](C)NC(=O)[C@H](CCCCN)NC(=O)CCSCc3cccc(n3)CSC[C@@H](C(N)=O)NC(=O)[C@]3(C)CCCN3C2=O)cc1 [Compound 065] ([Mpa]K[dA][Trp(5-F)][Trp(5-F)]PTY(Me)[αMeP]C-NH2; linker 1-10 via Pyridine(2,6-diCH2)) |  | 
7.00 to 9.96 | 7.00 to 10.00 | COc1ccc(C[C@@H]2NC(=O)[C@H]([C@@H](C)O)NC(=O)[C@@H]3C[C@H](F)CN3C(=O)[C@H](Cc3c[nH]c4ccc(F)cc34)NC(=O)[C@H](Cc3c[nH]c4ccc(F)cc34)NC(=O)[C@@H](C)NC(=O)[C@H](CCCCN)NC(=O)[C@@H](NC(C)=O)CC(=O)NCc3ccc(cc3)C[C@@H](C(N)=O)NC(=O)[C@]3(C)CCCN3C2=O)cc1 [Compound 066] (Ac-DK[dA][Trp(5-F)][Trp(5-F)][Pro(cis-4-F)]TY(Me)[αMeP][Phe(4-CH2NH2)]-NH2; lactam 1-10) |  | 
4.92 to 6.00 | 6.00 to 7.00 | COc1ccc(C[C@@H]2NC(=O)[C@H]([C@H](C)OC)NC(=O)[C@@H]3C[C@H](F)CN3C(=O)[C@H](Cc3c[nH]c4ccc(F)cc34)NC(=O)[C@H](Cc3c[nH]c4ccc(F)cc34)NC(=O)[C@@H](C)NC(=O)[C@H](CCCCN)NC(=O)CCSCc3cccc(c3)CSC[C@@H](C(N)=O)NC(=O)[C@]3(C)CCCN3C2=O)cc1 [Compound 072] ([Mpa]K[dA][Trp(5-F)][Trp(5-F)][Pro(cis-4-F)][aThr](Me)Y(Me)[αMeP]C-NH2; linker 1-10 via mXylylene) |  | 
